Laboratory results taken from patent US12331051B2 (priority 2021, dated 2025).
Where two headings read alike, the source gives them in different places.

Key:
Type in all cases: cell-based
[1] = biological target: T1, Alpha 1A adrenergic receptor (Homo sapiens, UniProt P35348); assay: Functional assay in HEK-293 cells (Ca2+ flux)
T1 construct: expressed in transfected cells; host or cells: HEK-293
T1 sequence (P35348 1-466): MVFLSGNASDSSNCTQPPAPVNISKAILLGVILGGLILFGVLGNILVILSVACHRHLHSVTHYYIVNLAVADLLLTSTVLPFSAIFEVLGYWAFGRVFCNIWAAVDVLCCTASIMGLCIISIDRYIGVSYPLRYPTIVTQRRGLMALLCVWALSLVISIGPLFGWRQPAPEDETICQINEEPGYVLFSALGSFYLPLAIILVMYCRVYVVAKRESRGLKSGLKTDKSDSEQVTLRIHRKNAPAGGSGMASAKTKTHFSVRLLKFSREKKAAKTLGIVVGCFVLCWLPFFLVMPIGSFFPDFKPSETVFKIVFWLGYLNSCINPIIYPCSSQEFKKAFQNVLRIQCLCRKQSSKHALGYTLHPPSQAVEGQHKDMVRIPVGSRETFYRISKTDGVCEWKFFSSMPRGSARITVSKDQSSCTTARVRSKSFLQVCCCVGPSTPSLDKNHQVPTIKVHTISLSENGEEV
Method: (§1) Neuro-receptor binding and functional effects of the “E559 polymorph” was examined by analyzing binding affinity [Ki (nM)], functional agonist activity [EC50 (nM)], and functional antagonist activity [IC50 (nM)] against a panel of key receptors in neurophysiological disorders. Binding and functional assays were performed at “E559 polymorph” concentrations of 0.0003, 0.003, 0.01, 0.03, 0.1, 0.3, 1, and 10 μM. In binding assays, cell membrane homogenates, expressing each receptor target, were incubated with the corresponding radio-ligand in absence or presence of several concentration of the “E559 polymorph” compound. The measurement of binding affinity of the “E559 polymorph” is represented in TABLE XIII by Ki (nM) which was calculated as percent inhibition of the binding of a radioactively labeled reference ligand at each receptor. In functional assays the HEK-293 cells expressing each receptor target were suspended in buffer and distribute in microplates and incubated for 30 minutes at room temperature or 37° C. in the presence of buffer alone (basal control), the reference agonist or antagonist, or the “E559 polymorph. Following incubation, the cells were lysed and the appropriate fluorescent probe (Ca2+ flux, cAMP, or IP1) were added for 60 minutes to measure the fluorescence transfer at the appropriate wavelength using a microplate reader. The cellular agonist effect (EC50) was calculated as a percent of control response to a known reference agonist and the cellular antagonist effect (IC50) was calculated as a percent inhibition of control reference agonist response for each receptor.

[2] = biological target: T2, Alpha 2A adrenergic receptor (Homo sapiens, UniProt P08913); assay: Functional assay in HEK-293 cells (Ca2+ flux)
T2 construct: expressed in transfected cells; host or cells: HEK-293
T2 sequence (P08913 1-465): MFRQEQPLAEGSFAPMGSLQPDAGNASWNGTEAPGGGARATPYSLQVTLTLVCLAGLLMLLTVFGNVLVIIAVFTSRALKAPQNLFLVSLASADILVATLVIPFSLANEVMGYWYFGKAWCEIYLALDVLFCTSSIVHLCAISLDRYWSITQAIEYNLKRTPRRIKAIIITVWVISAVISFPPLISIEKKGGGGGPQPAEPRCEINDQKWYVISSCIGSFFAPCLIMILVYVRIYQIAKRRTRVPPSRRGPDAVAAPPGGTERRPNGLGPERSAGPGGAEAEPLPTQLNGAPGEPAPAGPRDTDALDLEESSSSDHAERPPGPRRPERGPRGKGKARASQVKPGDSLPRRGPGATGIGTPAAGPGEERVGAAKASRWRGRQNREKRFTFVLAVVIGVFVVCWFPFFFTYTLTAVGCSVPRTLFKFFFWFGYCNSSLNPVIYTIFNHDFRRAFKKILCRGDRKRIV
Method: as §1

[3] = biological target: T3, Serotonin 1A receptor (5-HT1AR) (Homo sapiens, UniProt P08908); assay: Functional assay in HEK-293 cells (Ca2+ flux)
T3 construct: expressed in transfected cells; host or cells: HEK-293
T3 sequence (P08908 1-422): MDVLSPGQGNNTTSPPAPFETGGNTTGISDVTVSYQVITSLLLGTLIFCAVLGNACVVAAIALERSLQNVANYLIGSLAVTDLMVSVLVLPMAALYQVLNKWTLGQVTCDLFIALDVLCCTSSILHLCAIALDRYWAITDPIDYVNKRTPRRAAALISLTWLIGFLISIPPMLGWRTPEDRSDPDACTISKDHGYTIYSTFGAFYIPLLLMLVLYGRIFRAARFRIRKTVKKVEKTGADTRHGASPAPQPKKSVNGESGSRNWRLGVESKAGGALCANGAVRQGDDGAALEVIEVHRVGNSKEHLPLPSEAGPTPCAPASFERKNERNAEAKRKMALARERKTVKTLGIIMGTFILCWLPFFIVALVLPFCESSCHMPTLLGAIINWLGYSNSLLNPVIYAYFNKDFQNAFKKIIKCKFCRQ
Method: as §1

[4] = biological target: T4, 5-HT2A receptor (5-HT2AR) (Homo sapiens, UniProt P28223); assay: Functional assay in HEK-293 cells (IP1)
T4 construct: expressed in transfected cells; host or cells: HEK-293
Method: as §1
(§2) The functional agonist activity [EC50 (nM), Emax], and functional antagonist activity [IC50 (nM)] of the 5R:8S stereoisomer of the “E559 polymorph” (5R:8S E558) was compared with the “E559 polymorph” (a 5R:8R stereoisomer) at selected serotonin receptors. The assays were performed as described in Example 6.

[5] = biological target: T5, Serotonin 2B receptor (5-HT2BR) (Homo sapiens, UniProt P41595); assay: Functional assay in HEK-293 cells (IP1)
T5 construct: expressed in transfected cells; host or cells: HEK-293
Method: as §1, §2

D1 dopamine receptor = D1 dopamine receptor (Homo sapiens, UniProt P21728); assay: Functional assay in HEK-293 cells (cAMP); parameters: expressed in transfected cells; host or cells: HEK-293
Method: Neuro-receptor binding and functional effects of the “E559 polymorph” was examined by analyzing binding affinity [Ki (nM)], functional agonist activity [EC50 (nM)], and functional antagonist activity [IC50 (nM)] against a panel of key receptors in neurophysiological disorders. Binding and functional assays were performed at “E559 polymorph” concentrations of 0.0003, 0.003, 0.01, 0.03, 0.1, 0.3, 1, and 10 μM. In binding assays, cell membrane homogenates, expressing each receptor target, were incubated with the corresponding radio-ligand in absence or presence of several concentration of the “E559 polymorph” compound. The measurement of binding affinity of the “E559 polymorph” is represented in TABLE XIII by Ki (nM) which was calculated as percent inhibition of the binding of a radioactively labeled reference ligand at each receptor. […] Following incubation, the cells were lysed and the appropriate fluorescent probe (Ca2+ flux, cAMP, or IP1) were added for 60 minutes to measure the fluorescence transfer at the appropriate wavelength using a microplate reader. The cellular agonist effect (EC50) was calculated as a percent of control response to a known reference agonist and the cellular antagonist effect (IC50) was calculated as a percent inhibition of control reference agonist response for each receptor.

[6] = HEK293, IP1, ligand 5-HT, read-out: Functional Assay (agonist) Emax
[7] = read-out: Funcational Assay (antagonist) IC50, IP1, ligand 5-HT
[8] = read-out: Functional Assay (agonist) EC50, IP1, ligand 5-HT

T4 sequence (P28223 whole entry): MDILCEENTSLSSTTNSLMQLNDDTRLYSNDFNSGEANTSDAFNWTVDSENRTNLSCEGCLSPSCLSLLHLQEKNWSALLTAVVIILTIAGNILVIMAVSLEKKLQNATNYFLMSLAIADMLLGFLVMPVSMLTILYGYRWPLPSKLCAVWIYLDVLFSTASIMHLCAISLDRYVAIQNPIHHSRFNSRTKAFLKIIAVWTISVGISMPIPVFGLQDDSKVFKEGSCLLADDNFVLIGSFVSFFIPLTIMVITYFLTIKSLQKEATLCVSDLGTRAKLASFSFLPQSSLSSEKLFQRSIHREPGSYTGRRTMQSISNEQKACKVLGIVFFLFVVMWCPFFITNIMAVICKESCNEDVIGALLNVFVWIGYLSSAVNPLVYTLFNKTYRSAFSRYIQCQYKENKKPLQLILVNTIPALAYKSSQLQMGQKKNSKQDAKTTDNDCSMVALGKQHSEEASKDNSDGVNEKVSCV
T5 sequence (P41595 whole entry): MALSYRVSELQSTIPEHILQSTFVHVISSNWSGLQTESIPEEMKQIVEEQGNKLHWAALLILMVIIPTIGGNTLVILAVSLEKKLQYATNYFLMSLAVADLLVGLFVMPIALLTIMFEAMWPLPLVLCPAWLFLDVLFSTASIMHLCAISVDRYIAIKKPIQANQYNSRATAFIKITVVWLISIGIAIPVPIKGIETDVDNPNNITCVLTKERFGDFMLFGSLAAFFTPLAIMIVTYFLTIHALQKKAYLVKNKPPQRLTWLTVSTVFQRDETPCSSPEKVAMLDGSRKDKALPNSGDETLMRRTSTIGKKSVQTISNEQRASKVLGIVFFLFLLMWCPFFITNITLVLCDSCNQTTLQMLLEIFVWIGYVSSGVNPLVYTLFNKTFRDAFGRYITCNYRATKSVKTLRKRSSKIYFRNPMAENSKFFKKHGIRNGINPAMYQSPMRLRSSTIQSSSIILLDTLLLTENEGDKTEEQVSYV
D1 dopamine receptor, sequence (P21728 whole entry): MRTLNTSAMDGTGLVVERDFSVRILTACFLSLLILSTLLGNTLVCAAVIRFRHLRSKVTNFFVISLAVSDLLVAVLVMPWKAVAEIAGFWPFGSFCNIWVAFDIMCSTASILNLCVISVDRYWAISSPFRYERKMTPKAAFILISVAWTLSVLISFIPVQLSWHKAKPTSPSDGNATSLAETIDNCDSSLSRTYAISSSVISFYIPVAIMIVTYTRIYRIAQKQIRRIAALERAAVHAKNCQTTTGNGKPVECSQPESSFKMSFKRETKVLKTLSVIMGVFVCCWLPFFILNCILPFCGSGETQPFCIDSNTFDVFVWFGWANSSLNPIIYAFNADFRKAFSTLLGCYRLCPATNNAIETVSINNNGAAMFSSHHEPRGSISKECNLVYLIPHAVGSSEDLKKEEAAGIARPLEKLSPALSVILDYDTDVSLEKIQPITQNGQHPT

## CCN(CC)C(=O)[C@@H]1C=C2c3cccc4[nH]c(Br)c(c34)C[C@H]2N(C)C1 [E559, (5R, 8R)-2-Bromo-9,10-didehydro-N,N-diethyl-6-methylergoline-8-carboxamide hemi-D-tartrate]
[1]
  EC50: 51 nM
  IC50: > 10000 nM
[2]
  EC50: > 10000 nM
  IC50: 260 nM
[3]
  EC50: 3000 nM
  IC50: > 10000 nM
[4]
  EC50: 11 nM
  IC50: 24.9 nM
[4]; [6]
  Emax: 99%
[4]; [7]
  IC50: 24.9 nM
[4]; [8]
  EC50: 11 nM
[5]
  EC50: > 10000 nM
  IC50: 97 nM
[5]; [6]
  Emax: 0%
[5]; [7]
  IC50: 97 nM
[5]; [8]
  EC50: > 10000 nM
D1 dopamine receptor
  EC50: > 10000 nM
  IC50: 820 nM
